US12409206B2, “Use of cyclosporine analogues for treating fibrosis” (Hepion Pharmaceuticals, Inc., priority 2020, dated 2025)

Experiments:
[1] = test system: Human renal mesangial cells; experiment: Cell viability analysis, renal mesangial cell culture; type: cell-based; conditions: end of 4 days of treatment
Method: Human renal mesangial cells (ScienCell, Cat. #4200 (SC)) were cultured in 96-well plates. Treatments were applied in triplicate wells (applied 100 ul treatments per well) for 2 days, then re-applied for an additional 2 days. Cells were near confluence at the start of treatments. […] Spent culture medium collected from Day 2-4 of treatment was assayed for procollagen and fibronectin by enzyme-linked immunosorbent assays (ELISA) (Procollagen ELISA antibody pair (ab216064) and fibronectin ELISA antibody pair (ab222262) from Abcam). Procollagen and fibronectin were not detected in medium not applied to cells. Procollagen and fibronectin levels in the medium are represented by means±SD (bars) from 3 replicate wells (open circles).

[2] = test system: Human adult dermal fibroblasts; experiment: Cell viability analysis, dermal fibroblast culture; type: cell-based; conditions: end of 4 days of treatment (so in the source)
[3] = test system: human precision cut liver slices (PCLS); experiment: PCLS biomarker secretion (ELISA); type: cell-based
Method: (§1) PCLS were obtained from 5 human donors who underwent resection of liver cancer. Replicate slices were collected from healthy margins of the resections and cultured for 4 or 6 days depending on the experimental protocol. In the Nonstimulation Protocol slices were cultured for 6 days and treated for the entire period with DMSO vehicle or 5 μM CRV431. In the Stimulation Protocol slices were rested for 1 day and then administered the cytokines, TGFβ and PDGF-BB, for 3 days to stimulate inflammation and fibrosis. DMSO vehicle, CRV431 (1 and 5 μM), Alk5i (10 μM), obeticholic acid (5 μM), elafibranor (5 μM), resmetirom ([…]), and Aramchol (5 μM) were administered individually as drug treatments in the Stimulation Protocol concurrent with TGFβ+PDGF-BB. Culture medium treatments were replaced daily.
Four types of evaluations were conducted on the PCLS: (a) secretion of inflammation and fibrosis biomarkers into the culture medium, (b) histological staining and quantitation of Sirius red as a measure of tissue fibrosis, (c) gene expression of inflammation and fibrosis biomarkers by RT-PCR, and (d) RNA sequencing (RNA-Seq) of the complete transcriptome. Each of the four types of evaluation is described below: • (a) Biomarker secretion. Spent culture medium was collected daily from duplicate slices for each treatment. ELISAs were used to quantify secretion of monocyte chemoattractant protein (MCP-1), interleukin-6 (IL-6), tissue inhibitor of metalloproteinase-1 (TIMP1), hyaluronic acid, fibronectin, and collagen 1α1. For each donor the mean level of biomarker secretion in each treatment group was expressed as a percentage change relative to DMSO vehicle, the percentages averaged for all donors, and finally the mean daily percentage change calculated from all days of evaluation. […] Sirius red was quantified morphometrically in the histological sections as the percentage area with Sirius red staining in 10 sections from each treatment. In the Nonstimulation Protocol the quantity of Sirius red staining was expressed relative to the vehicle group. In the Stimulation Protocol the quantity of Sirius red staining was expressed relative to nonstimulated PCLS (0%) and TGFβ+PDGF-BB-stimulated+vehicle PCLS (100%). […] RNA was isolated from duplicate liver slices per treatment at the end of the experiments and evaluated by RT-PCR for 5 markers of inflammation and fibrosis: MCP-1, IL-6, TIMP1, αSMA, and collagen 1α1. β actin was used as a reference gene to calculate relative levels of each target gene RNA. […] RNA sequencing of the complete transcriptome (30 million reads per sample) was conducted on vehicle and 5 μM CRV431 treatment groups from 3 donors both from the Nonstimulation and Stimulation Protocols. […]

[4] = test system: human precision cut liver slices (PCLS); experiment: PCLS RNA-Seq, Nonstimulation Protocol: Non-stimulated+CRV vs Non-stimulated+Vehicle; type: cell-based; conditions: for log2FoldChange: Non-stimulated+CRV vs Non-stimulated+Vehicle; for fold change in RNA: absence of TGFβ+PDGF-BB, universal in all donors
Method: as §1
Four types of evaluations were conducted on the PCLS: (a) secretion of inflammation and fibrosis biomarkers into the culture medium, (b) histological staining and quantitation of Sirius red as a measure of tissue fibrosis, (c) gene expression of inflammation and fibrosis biomarkers by RT-PCR, and (d) RNA sequencing (RNA-Seq) of the complete transcriptome. Each of the four types of evaluation is described below: • (a) Biomarker secretion. Spent culture medium was collected daily from duplicate slices for each treatment. ELISAs were used to quantify secretion of monocyte chemoattractant protein (MCP-1), interleukin-6 (IL-6), tissue inhibitor of metalloproteinase-1 (TIMP1), hyaluronic acid, fibronectin, and collagen 1α1. For each donor the mean level of biomarker secretion in each treatment group was expressed as a percentage change relative to DMSO vehicle, the percentages averaged for all donors, and finally the mean daily percentage change calculated from all days of evaluation. Results are shown in FIG. 8A (secreted markers-% daily average change). • (b) Sirius red histological staining. […] Sirius red was quantified morphometrically in the histological sections as the percentage area with Sirius red staining in 10 sections from each treatment. In the Nonstimulation Protocol the quantity of Sirius red staining was expressed relative to the vehicle group. In the Stimulation Protocol the quantity of Sirius red staining was expressed relative to nonstimulated PCLS (0%) and TGFβ+PDGF-BB-stimulated+vehicle PCLS (100%). Results are shown in FIG. 8B (Sirius red staining for tissue fibrosis). • (c) Gene expression by RT-PCR. RNA was isolated from duplicate liver slices per treatment at the end of the experiments and evaluated by RT-PCR for 5 markers of inflammation and fibrosis: MCP-1, IL-6, TIMP1, αSMA, and collagen 1α1. β actin was used as a reference gene to calculate relative levels of each target gene RNA. […] Results are shown in FIG. 8C (gene expression by RT-PCR). • (d) Gene expression by RNA-Seq. RNA sequencing of the complete transcriptome (30 million reads per sample) was conducted on vehicle and 5 μM CRV431 treatment groups from 3 donors both from the Nonstimulation and Stimulation Protocols. Data were analyzed by bioinformatics software programs to identify genes that were differentially expressed between vehicle and CRV431 treatments.
For the evaluation done for (d), 12 samples corresponding to 3 different donor slides which underwent 4 different treatments were studied. the comparisons carried out in this analysis are: (1) TGFb/PDGF+CRV vs TGFb/PDGF+Vehicle (V), and (2) Non-stimulated+CRV vs Non-stimulated+Vehicle. […] Table 1. Samples for evaluation (d)
Quality Control check was performed in all samples. All samples had more than 30 million reads and a quality score average >35 for almost all the bases in the sequences. The duplication levels are expected as it is RNA sequencing, and different copies of the same RNA are expected to be present in the samples. All samples had good amount of reads and quality, therefore all samples passed the QC checked and were included in the analysis. […]

[5] = test system: hepatitis B; conditions: preclinical studies; cited from earlier work
[6] = test system: hepatitis C; conditions: preclinical studies; cited from earlier work

In the case of `CC[C@@H]1NC(=O)[C@H]([C@H](O)[C@H](C)CCCCCCNC(C)=O)N(C)C(=O)[C@H](C(C)C)N(C)C(=O)[C@H](CC(C)C)N(C)C(=O)[C@H](CC(C)C)N(C)C(=O)[C@@H](C)NC(=O)[C@H](C)NC(=O)[C@H](CC(C)C)N(C)C(=O)[C@H](C(C)C)NC(=O)[C@H](CC(C)C)N(C)C(=O)[C@@H](C)N(C)C1=O` [CRV431], the cell viability [1] was “none of the CRV431 treatments affected cell viability”, the cell viability [2] was “none of the CRV431 treatments affected cell viability” and the “mean daily secretion of all markers” value ([3]; CRV431 applied at 5 μM, markers MCP-1, IL-6, TIMP1, hyaluronic acid, fibronectin, collagen 1α1) was “decreased”. For the same compound, the “secretion of collagen1α1, fibronectin, hyaluronic acid, IL-6, and MCP-1” value ([3]; ELISA) was “reduced secretion”, the log2FoldChange ([4]; gene ACOT9) was 0.543 and the log2FoldChange ([4]; gene AP003119.3) was −0.67. It also gave a log2FoldChange ([4]; gene AREG) of 1.034, a log2FoldChange ([4]; gene CCDC149) of 0.76 and a log2FoldChange ([4]; gene CDH11) of −0.915. The log2FoldChange ([4]; gene CXCL12) was 0.623, the log2FoldChange ([4]; gene CYP24A1) was −1.499 and the log2FoldChange ([4]; gene DDX60) was −0.739. For the same compound, the “fold change in RNA” value ([4]; gene DKK1) was “+3.8 fold”, the log2FoldChange ([4]; gene DNAJB9) was 0.721 and the “fold change in RNA” value ([4]; gene ESM1) was −2.2 fold. The log2FoldChange ([4]; gene GDPD5) was −0.606, the log2FoldChange ([4]; gene GMPPA) was 0.768 and the “fold change in RNA” value ([4]; gene IFI44L) was −4.8 fold. It also gave a log2FoldChange ([4]; gene KRT7) of 0.563, a log2FoldChange ([4]; gene MPEG1) of 0.584 and a log2FoldChange ([4]; gene MS4A4A) of 0.735. For the same compound, the log2FoldChange ([4]; gene NCOA3) was −1.438, the “fold change in RNA” value ([4]; gene NCOA3) was −2.7 fold and the log2FoldChange ([4]; gene NREP) was −0.638. The log2FoldChange ([4]; gene NUCB2) was 0.851, the log2FoldChange ([4]; gene NUMA1) was −0.537 and the log2FoldChange ([4]; gene PGM3) was 0.751. It also gave a log2FoldChange ([4]; gene POU2F2) of 2.856, a log2FoldChange ([4]; gene SERPINB2) of 1.255 and a log2FoldChange ([4]; gene SNHG3) of 0.665. For the same compound, the log2FoldChange ([4]; gene SOWAHC) was −0.601, the log2FoldChange ([4]; gene SRGAP2B) was −0.729 and the “fold change in RNA” value ([4]; gene mIR-194-2) was −7.9 fold. For the same compound, the anti-viral activity [5] was “shows anti-viral activity” and the anti-viral activity [6] was “shows anti-viral activity”.
